Where “and” joins values, the source holds several entries; their conditions need not be identical. Identical values can stand only once.
How the values were obtained:
[1] = tested on: PCA-induced ejaculation in anaesthetised rats; assay: p-chloroamphetamine (PCA)-induced ejaculation and penile erection in anaesthetised rats; type: in vivo, rat
Procedure: In order to study penile; erection and ejaculation the method used was based on the methodology taught in Yonezawa et al. (2000) Life Sciences 67, 3031-3039. For ease of reference, this methodology is described below:
Male Sprague Dawley rats, weighing 350-450 g, are used. Prior to the experiments the animals are housed in groups (2 rats per cage) under controlled 12 h light-dark cycle (lights on at 07:00), constant temperature (23±1° C.) and humidity (55±5%). They have free access to standard food pellets and water.
Rats are anesthestised with sodium pentobarbitone (50 mg/kg, i.p.) and are placed in the supine position. The penis is extruded from its sheath and gently held by a wooden applicator positioned at the base of the penis. The test compounds are administered by intravenous infusion and p-chloroamphetamine (PCA) (5-10 mg/kg) is administered i.p. immediately before the sheath retraction and the penile responses, including penile erection, redding and expansion of the penile body, glans erection, engorgement and slight flaring of the glans and cup, glans erection with intense flaring of the glans, are recorded. Latencies from PCA administration to the initial penile response and ejaculation is also measured in seconds.
The effect of a test compound on p-chloroamphetamine (PCA) induced ejaculation is also assessed by weighing the ejaculates accumulated over 30 mins. A suitable method using conscious rats is described in Renyi (1985) Neuropharmacology, Vol. 24. No. 8, pp 697-704.

oxytocin receptors = conditions: read-out: OT; cited from earlier work
[2] = tested on: copulatory behaviour in conscious rats; assay: Copulatory behaviour in conscious rats (ejaculatory latency); type: in vivo, rat; conditions: 0.05 mgkg^-1 sc
Procedure: For all the sexual behavour tests, the male rats were placed in an observation arena (50-60 cm diameter), starting 5 hours into the dark cycle and observed under red ilumination. Three to four minutes after placing the male in the arena, a receptive female (ovariectomised, oestradiol benzoate/progesterone injection 48 hour before behavioural study) was introduced into the arena and the following parameters noted: • i) ejaculatory latency (EJL; time taken from addition of receptive female into the arena to ejaculation); • ii) copulatory efficiency (CE; ejaculatory latency/the number of ihtromissions to ejaculation, i.e. the number of seconds between intromissions); • iii) intromission frequency (IF; the number of intromissions to ejaculation); • iv) mount frequency (MF; the number of mounts to ejaculation); • v) post ejaculatory interval (PEI; the time taken from ejaculation to the commencement of copulatory behaviour).
Rodent copulatory behaviour is characterised by a series of mounts, with and without vaginal insertion (50-80% of mounts result in intromission [vaginal penetration]) and ejaculation occurs after 6 to 12 intromissions. Each intromission lasts a matter of seconds—it is not possible to quantify intromission length i.e. intravaginal latency. The effect of L-371257 was assessed on a number of copulatory parameters (see above). We have focused ejaculatory latency as a clinical biomarker of time taken to achieve ejaculation.

[3] = target: vasopressin V1a receptors (Rattus norvegicus, UniProt P30560); conditions: cited from earlier work
Chain of vasopressin V1a receptors (P30560 whole entry): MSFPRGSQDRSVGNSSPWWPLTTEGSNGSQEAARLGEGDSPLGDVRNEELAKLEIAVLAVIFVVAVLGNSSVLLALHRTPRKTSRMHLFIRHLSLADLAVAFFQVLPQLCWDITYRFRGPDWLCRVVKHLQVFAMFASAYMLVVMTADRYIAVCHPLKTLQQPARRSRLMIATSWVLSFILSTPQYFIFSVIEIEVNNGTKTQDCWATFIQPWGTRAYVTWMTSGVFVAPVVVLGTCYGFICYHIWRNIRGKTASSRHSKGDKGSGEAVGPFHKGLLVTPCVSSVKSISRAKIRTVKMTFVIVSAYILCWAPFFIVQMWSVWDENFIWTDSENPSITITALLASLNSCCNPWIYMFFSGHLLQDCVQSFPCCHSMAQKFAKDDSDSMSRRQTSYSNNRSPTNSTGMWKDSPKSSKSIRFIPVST

[4] = Plasma concentration in the copulatory behaviour study; type: in vivo, rat; conditions: 0.05 mgkg^-1 sc, rats

SMILES	time taken for the rats to achieve erection ([1]; anaesthetised rats, PCA)	Ejaculation delayed (near maximal effect) ([1]; free plasma concentration 30.9 nM, intravenous infusion, anaesthetised rats)	ejaculation and penile erection, in words ([1]; plasma conc 11.4 nM and 30.9 nM)	effect on PCA-induced ejaculation ([1]; plasma concentration of 9-31 nM, anaesthetised rats)	Ki (oxytocin receptors)	other effects on copulatory behaviour [2]	increase of ejaculatory latency ([2]; P<0.05 vs vehicle)	Ejaculatory latency ([2]; plasma conc ~30 nM, mean ± sem, n = 8)	Ki [3]	Plasma conc [4]
COC1CCN(Cc2nnc(C3CCN(c4ccccn4)CC3)n2Cc2ccccc2)CC1 [Compound 1, 4-[4-Benzyl-5-(4-methoxy-piperidin-1-ylmethyl)-4H-[1,2,4]triazol-3-yl]-3,4,5,6-tetrahydro-2H-[1,2′]bipyridinyl]	not significantly affected	100%	* At both of these concentrations Compound 1 delayed ejaculation without affecting penile erection.	significantly delayed	–	–	–	–	–	–
COc1cc(OC2CCN(C(C)=O)CC2)ccc1C(=O)N1CCC(N2C(=O)OCc3ccccc32)CC1 [L-371,257]	–	–	–	–	0.019 µM	no other significant effects	67%	266 s and 266.4 ± 30.9 s	0.0037 µM	~0.03 µM

— patent US20050026810A1, “Treatment of male sexual dysfunction” (Pfizer Inc., priority 2003, published 2005)
